Laboratory results: ChEMBL document CHEMBL1909046, “DrugMatrix in vitro pharmacology data”

Columns and labels:
[1] = DRUGMATRIX: Sodium/nucleoside co-transporter radioligand binding (ligand: nitrobenzylthioinosine); assay type: cell membranes, Cavia porcellus, Dunkin-Hartley, Cerebral cortex, Membrane; details: Not Active = under 50% inhibition at 10 µM
[2] = DRUGMATRIX: Calcium Channel Type L, Phenylalkylamine radioligand binding (ligand: [3H] (-)-Desmethoxyverapamil (D-888)); assay type: cell membranes, Rattus norvegicus, Wistar, Brain, Membrane; details: Not Active = under 50% inhibition at 10 µM
[3] = target: T1, Muscarinic acetylcholine receptor M4 (Homo sapiens, UniProt P08173); assay type: cell membranes, CHO-K1, Membrane; details: cho-k1; also: in other assays of this panel Not Active means under 50% inhibition at 10 µM
T1 sequence (P08173 whole entry): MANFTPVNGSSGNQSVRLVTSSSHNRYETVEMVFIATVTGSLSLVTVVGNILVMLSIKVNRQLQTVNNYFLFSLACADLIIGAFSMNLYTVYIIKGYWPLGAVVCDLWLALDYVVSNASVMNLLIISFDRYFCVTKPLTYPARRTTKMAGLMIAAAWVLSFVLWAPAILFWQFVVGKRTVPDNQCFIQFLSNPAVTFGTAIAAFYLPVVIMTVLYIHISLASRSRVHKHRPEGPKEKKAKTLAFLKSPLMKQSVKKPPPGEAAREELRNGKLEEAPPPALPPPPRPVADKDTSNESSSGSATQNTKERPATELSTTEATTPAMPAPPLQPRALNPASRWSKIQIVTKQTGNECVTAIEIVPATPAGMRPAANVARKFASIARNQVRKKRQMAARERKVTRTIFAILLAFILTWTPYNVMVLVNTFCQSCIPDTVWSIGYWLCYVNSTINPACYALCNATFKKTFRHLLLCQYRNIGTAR

D(1A) dopamine receptor = D(1A) dopamine receptor (Homo sapiens, UniProt P21728); assay: DRUGMATRIX: Dopamine D1 radioligand binding (ligand: [3H] SCH-23390); assay type: cell membranes, CHO, Membrane; details: cho; Not Active = under 50% inhibition at 10 µM
Sequence of D(1A) dopamine receptor (P21728 whole entry): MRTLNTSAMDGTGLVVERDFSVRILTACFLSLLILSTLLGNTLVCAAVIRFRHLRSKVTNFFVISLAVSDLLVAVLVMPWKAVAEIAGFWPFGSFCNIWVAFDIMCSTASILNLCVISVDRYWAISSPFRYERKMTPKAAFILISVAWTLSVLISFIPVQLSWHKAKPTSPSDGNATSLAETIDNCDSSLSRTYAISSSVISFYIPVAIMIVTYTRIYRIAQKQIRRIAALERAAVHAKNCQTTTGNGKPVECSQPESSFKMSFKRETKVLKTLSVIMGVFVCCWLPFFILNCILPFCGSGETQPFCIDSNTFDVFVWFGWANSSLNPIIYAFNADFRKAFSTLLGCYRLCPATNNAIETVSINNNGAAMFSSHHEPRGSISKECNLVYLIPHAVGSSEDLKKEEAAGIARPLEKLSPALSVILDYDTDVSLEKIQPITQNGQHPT

[4] = target: T2, Polyunsaturated fatty acid lipoxygenase ALOX15 (Oryctolagus cuniculus, UniProt P12530); assay: biochemical; assay type: tissue-based, Reticulocytes; details: reticulocytes;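 also: inhibition of 15-lipoxygenase enzyme activity measured with linoleic acid as the substrate; in other assays of this panel Not Active means under 50% inhibition at 10 µM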
T2 sequence (P12530 whole entry): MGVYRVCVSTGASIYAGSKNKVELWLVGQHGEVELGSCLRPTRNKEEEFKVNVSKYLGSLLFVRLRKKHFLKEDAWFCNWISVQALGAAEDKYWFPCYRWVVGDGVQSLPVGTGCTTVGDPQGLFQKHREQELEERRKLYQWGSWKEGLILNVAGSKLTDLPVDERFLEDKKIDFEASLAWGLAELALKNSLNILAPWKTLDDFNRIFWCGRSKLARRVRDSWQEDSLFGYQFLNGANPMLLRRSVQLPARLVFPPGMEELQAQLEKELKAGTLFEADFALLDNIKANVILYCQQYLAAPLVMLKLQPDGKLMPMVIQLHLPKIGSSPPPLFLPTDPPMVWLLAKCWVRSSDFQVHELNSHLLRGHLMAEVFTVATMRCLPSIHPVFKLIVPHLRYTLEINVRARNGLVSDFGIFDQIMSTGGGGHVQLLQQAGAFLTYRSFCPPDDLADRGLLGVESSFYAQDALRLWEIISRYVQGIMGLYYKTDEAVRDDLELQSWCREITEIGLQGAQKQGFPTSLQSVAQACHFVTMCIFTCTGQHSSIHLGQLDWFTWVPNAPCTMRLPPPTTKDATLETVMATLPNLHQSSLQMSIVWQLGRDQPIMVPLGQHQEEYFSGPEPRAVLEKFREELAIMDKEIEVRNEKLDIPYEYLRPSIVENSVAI

Adenosine receptor A2a = Adenosine receptor A2a (Homo sapiens, UniProt P29274); assay: DRUGMATRIX: Adenosine A2A radioligand binding (ligand: […]); assay type: cell membranes, HEK293, Membrane; details: hek293; Not Active = under 50% inhibition at 10 µM
Sequence of Adenosine receptor A2a (P29274 whole entry): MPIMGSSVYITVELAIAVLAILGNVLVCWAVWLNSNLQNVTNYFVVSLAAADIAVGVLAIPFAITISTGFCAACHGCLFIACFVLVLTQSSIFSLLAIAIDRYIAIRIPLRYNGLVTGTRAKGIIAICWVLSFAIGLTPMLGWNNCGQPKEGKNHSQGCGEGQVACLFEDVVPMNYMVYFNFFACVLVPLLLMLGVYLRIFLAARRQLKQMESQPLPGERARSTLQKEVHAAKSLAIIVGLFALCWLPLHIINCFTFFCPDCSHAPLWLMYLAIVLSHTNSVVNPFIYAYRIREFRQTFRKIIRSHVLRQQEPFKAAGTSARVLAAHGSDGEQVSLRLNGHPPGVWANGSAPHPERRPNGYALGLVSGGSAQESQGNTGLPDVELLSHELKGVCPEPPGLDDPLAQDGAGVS

Neutrophil elastase = target: T3, Neutrophil elastase (Homo sapiens, UniProt P08246); assay type: tissue-based;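 also: inhibition of neutrophil elastase enzyme activity, measured with a p-nitroanilide-linked peptide substrate; in other assays of this panel Not Active means under 50% inhibition at 10 µM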
T3 sequence (P08246 whole entry): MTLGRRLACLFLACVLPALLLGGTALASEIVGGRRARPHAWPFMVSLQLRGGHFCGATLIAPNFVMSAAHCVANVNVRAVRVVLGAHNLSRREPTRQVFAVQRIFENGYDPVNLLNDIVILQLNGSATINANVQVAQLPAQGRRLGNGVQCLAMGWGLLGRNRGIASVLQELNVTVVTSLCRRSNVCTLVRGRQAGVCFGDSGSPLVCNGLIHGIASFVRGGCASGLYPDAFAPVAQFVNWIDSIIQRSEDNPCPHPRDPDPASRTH

[5] = target: T4, Alpha-2A adrenergic receptor (Homo sapiens, UniProt P08913); assay type: cell membranes, Sf9, Membrane; details: sf9; also: in other assays of this panel Not Active means under 50% inhibition at 10 µM
T4 sequence (P08913 whole entry): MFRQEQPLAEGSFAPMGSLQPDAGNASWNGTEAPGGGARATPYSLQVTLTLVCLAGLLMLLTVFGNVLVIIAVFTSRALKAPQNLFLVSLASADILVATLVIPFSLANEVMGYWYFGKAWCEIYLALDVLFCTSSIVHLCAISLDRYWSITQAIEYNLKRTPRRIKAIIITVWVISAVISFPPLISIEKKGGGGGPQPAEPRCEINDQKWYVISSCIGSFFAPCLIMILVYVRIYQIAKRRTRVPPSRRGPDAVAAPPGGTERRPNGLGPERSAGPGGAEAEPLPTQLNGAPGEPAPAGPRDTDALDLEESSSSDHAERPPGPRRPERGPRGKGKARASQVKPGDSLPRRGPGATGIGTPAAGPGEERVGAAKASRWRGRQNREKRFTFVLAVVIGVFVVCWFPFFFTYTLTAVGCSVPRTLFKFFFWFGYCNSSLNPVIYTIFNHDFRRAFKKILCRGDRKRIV

[6] = target: Kappa-type opioid receptor (Homo sapiens, UniProt P41145); assay: DRUGMATRIX: Opiate kappa (OP2, KOP) radioligand binding (ligand: [3H] Diprenorphine); assay type: cell membranes, HEK293, Membrane; details: hek293; Not Active = under 50% inhibition at 10 µM
Sequence of Kappa-type opioid receptor (P41145 whole entry): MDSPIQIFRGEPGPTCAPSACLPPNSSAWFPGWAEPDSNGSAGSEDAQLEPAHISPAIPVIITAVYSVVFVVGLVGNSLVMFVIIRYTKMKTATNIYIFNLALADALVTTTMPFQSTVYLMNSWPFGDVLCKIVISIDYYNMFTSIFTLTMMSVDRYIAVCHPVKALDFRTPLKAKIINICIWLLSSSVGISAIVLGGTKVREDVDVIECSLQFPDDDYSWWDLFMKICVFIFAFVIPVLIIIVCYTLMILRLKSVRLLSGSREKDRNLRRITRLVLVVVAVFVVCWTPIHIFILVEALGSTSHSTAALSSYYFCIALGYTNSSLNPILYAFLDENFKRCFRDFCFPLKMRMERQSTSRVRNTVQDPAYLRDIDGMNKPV

[7] = target: Beta-2 adrenergic receptor (Homo sapiens, UniProt P07550); assay: DRUGMATRIX: Adrenergic beta2 radioligand binding (ligand: [3H] CGP-12177); assay type: cell membranes, Membrane; details: cho; Not Active = under 50% inhibition at 10 µM
Sequence of Beta-2 adrenergic receptor (P07550 whole entry): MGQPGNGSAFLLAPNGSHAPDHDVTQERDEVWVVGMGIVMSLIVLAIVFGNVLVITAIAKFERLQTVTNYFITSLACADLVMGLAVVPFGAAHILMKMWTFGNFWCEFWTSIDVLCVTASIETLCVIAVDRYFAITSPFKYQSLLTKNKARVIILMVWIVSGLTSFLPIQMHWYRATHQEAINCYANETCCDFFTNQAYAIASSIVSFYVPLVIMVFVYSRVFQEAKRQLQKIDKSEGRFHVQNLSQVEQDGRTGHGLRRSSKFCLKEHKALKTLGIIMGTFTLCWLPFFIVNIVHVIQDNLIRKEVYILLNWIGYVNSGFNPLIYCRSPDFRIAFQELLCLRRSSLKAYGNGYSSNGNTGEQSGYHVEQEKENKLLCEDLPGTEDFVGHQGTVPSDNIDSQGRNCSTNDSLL

[8] = target: cGMP-specific 3',5'-cyclic phosphodiesterase (Homo sapiens, UniProt O76074); assay: DRUGMATRIX: Phosphodiesterase PDE5 enzyme inhibition (substrate: [3H]cGMP + cGMP); assay type: tissue-based, Platelet; details: platelet; Not Active = under 50% inhibition at 10 µM
[9] = target: Beta-1 adrenergic receptor (Homo sapiens, UniProt P08588); assay: DRUGMATRIX: Adrenergic beta1 radioligand binding (ligand: [125I] Cyanopindolol); assay type: cell membranes, CHO-K1, Membrane; details: cho-k1; Not Active = under 50% inhibition at 10 µM
Sequence of Beta-1 adrenergic receptor (P08588 whole entry): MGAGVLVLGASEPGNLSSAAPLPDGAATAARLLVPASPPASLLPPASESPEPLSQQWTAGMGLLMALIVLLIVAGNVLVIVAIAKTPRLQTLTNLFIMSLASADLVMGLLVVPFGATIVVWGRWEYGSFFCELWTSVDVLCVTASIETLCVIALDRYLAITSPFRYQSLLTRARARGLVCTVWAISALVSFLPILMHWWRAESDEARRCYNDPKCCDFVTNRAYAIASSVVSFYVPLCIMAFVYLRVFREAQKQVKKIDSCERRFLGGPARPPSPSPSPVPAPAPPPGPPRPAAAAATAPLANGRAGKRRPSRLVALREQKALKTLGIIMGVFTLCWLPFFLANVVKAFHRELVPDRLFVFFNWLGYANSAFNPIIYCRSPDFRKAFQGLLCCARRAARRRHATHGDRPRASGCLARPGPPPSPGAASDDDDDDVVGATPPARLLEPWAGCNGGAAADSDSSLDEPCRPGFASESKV

CC1(C)[C@H]2CC[C@]1(C)C(=O)C2 [(-)-CAMPHOR]
Not Active: IC50 [1] | Ki [1] | IC50 [2] | Ki [2] | IC50 [3] | IC50 (D(1A) dopamine receptor) | IC50 [4] | IC50 (Adenosine receptor A2a) | IC50 (Neutrophil elastase) | IC50 [5] | IC50 [6] | IC50 [7] | IC50 [8] | IC50 [9]

Oc1c(I)cc(I)c2cccnc12 [IODOQUINOL]
Not Active: IC50 [1] | Ki [1] | IC50 [2] | Ki [2] | IC50 [3] | IC50 (D(1A) dopamine receptor) | IC50 [4] | IC50 (Adenosine receptor A2a) | IC50 (Neutrophil elastase) | IC50 [5] | IC50 [6] | IC50 [7] | IC50 [8] | IC50 [9]

NNC(=O)c1ccncc1 [ISONIAZID]
Not Active: IC50 [1] | Ki [1] | IC50 [2] | Ki [2] | IC50 [3] | IC50 (D(1A) dopamine receptor) | IC50 [4] | IC50 (Adenosine receptor A2a) | IC50 (Neutrophil elastase) | IC50 [5] | IC50 [6] | IC50 [7] | IC50 [8] | IC50 [9]

CC1=C(/C=C/C(C)=C/C=C/C(C)=C\C(=O)O)C(C)(C)CCC1 [ISOTRETINOIN]
Not Active: IC50 [1] | Ki [1] | IC50 [2] | Ki [2] | IC50 [3] | IC50 (D(1A) dopamine receptor) | IC50 [4] | IC50 (Adenosine receptor A2a) | IC50 (Neutrophil elastase) | IC50 [5] | IC50 [6] | IC50 [7] | IC50 [8] | Ki [9]

CO[C@@H]1[C@@H](O[C@@H]2O[C@H](C)[C@@H](O[C@H]3C[C@@](C)(O)[C@@H](OC(=O)CC(C)C)[C@H](C)O3)[C@H](N(C)C)[C@H]2O)[C@@H](CC=O)C[C@@H](C)[C@@H](O)/C=C/C=C/C[C@@H](C)OC(=O)C[C@H]1O [KITASAMYCIN]
Not Active: IC50 [1] | Ki [1] | IC50 [2] | Ki [2] | IC50 [3] | IC50 (D(1A) dopamine receptor) | IC50 [4] | IC50 (Adenosine receptor A2a) | IC50 (Neutrophil elastase) | IC50 [5] | IC50 [6] | IC50 [7] | IC50 [8] | IC50 [9]

Nc1nnc(-c2cccc(Cl)c2Cl)c(N)n1 [LAMOTRIGINE]
Not Active: IC50 [1] | Ki [1] | IC50 [2] | Ki [2] | IC50 [3] | IC50 (D(1A) dopamine receptor) | IC50 [4] | IC50 (Adenosine receptor A2a) | IC50 (Neutrophil elastase) | IC50 [5] | IC50 [6] | IC50 [7] | IC50 [8] | IC50 [9]

CCC[C@@H]1C[C@@H](C(=O)N[C@@H]([C@H]2O[C@H](SC)[C@H](O)[C@@H](O)[C@H]2O)[C@@H](C)O)N(C)C1 [LINCOMYCIN]
Not Active: IC50 [1] | Ki [1] | IC50 [2] | Ki [2] | IC50 [3] | IC50 (D(1A) dopamine receptor) | IC50 [4] | IC50 (Adenosine receptor A2a) | IC50 (Neutrophil elastase) | IC50 [5] | IC50 [6] | IC50 [7] | IC50 [8] | IC50 [9]

NCCCC[C@H](N[C@@H](CCc1ccccc1)C(=O)O)C(=O)N1CCC[C@H]1C(=O)O [LISINOPRIL ANHYDROUS]
Not Active: IC50 [1] | Ki [1] | IC50 [2] | Ki [2] | IC50 [3] | IC50 (D(1A) dopamine receptor) | IC50 [4] | IC50 (Adenosine receptor A2a) | IC50 (Neutrophil elastase) | IC50 [5] | IC50 [6] | IC50 [7] | IC50 [8] | IC50 [9]
